Measurements taken from US20230365546A1, “5-SUBSTITUTED INDOLE 3-AMIDE DERIVATIVES, PREPARATION METHOD AND USE THEREOF” (ORIGIANT PHARMACEUTICAL CO., LTD, priority 2020, published 2023).

Key:
RIPK1 = RIPK1 (Homo sapiens (Human), UniProt Q13546); assay: In vitro kinase assay (Eurofins Kinase Profiler), IC50; type: biochemical; conditions: 0.001-10 μM, read-out: RIPK 1 (IC50)
Experimental: In vitro kinase assays were conducted using Kinase Profiler services provided by Eurofins. The experimental method was as follows: the small molecule compound to be tested (0.001-10 μM), the protein kinase to be tested were incubated with a buffer containing substrate, 10 mM magnesium acetate, and [γ-^33P-ATP], the reaction was started by adding Mg\TPmix, after incubation for a period of time at room temperature, a 3% phosphate solution was added to the buffer to stop the reaction. Subsequently, 10 μL of the reaction mixture was quantitatively pipetted onto P30 filter paper, which was washed three times with 75 mM phosphate solution and then once with methanol. The P30 filter paper was air-dried and scintillation fluid was added for scintillation counting.

HT-29 cells = assay: Protection against programmed necrosis of HT-29 cells (TNF α/Smac mimetic/Z-VAD-FMK, CCK8); type: cell-based; conditions: Homo sapiens, TNF α/Smac mimetic/Z-VAD-FMK induced 24 h, CCK8, read-out: HT-29 (EC50)

Sequence of RIPK1 (Q13546 whole entry): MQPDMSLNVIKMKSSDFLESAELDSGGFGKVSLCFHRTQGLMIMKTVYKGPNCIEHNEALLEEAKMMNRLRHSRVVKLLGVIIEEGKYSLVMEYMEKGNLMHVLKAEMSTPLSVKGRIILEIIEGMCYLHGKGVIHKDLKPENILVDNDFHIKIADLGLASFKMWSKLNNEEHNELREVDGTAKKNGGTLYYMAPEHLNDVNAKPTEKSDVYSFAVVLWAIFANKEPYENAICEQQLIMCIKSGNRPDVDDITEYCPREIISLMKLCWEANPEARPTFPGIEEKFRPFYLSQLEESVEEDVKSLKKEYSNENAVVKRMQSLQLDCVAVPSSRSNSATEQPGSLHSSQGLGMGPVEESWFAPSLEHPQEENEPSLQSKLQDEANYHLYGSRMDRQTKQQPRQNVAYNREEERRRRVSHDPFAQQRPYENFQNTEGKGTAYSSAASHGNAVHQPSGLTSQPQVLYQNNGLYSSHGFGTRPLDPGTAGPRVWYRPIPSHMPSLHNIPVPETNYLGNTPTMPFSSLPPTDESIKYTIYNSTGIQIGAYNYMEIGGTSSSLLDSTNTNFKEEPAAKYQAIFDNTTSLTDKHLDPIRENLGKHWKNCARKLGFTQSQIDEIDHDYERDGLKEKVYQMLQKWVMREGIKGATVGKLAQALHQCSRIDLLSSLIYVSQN

Row | Compound | IC50 (RIPK1) [nM] | EC50 (HT-29 cells) [nM]
1 | CCCCn1cc(C(=O)N[C@@H](C)c2cccc(F)c2)c2cc(-c3ccn4nc(NC(=O)C5CC5)nc4c3)ccc21 [Compound 152] | 10 to 100 | 10 to 100
2 | COc1ccc(CNC(=O)c2cn(C)c3ccc(-c4ccc5nc(NC(=O)C6CC6)sc5c4)cc23)cc1OC [Compound 65] | 100 to 1000 | 10 to 100
3 | O=C(NCc1cccc([N+](=O)[O-])c1)c1c[nH]c2ccc(-c3ccc4nc(NC(=O)C5CC5)sc4c3)cc12 [Compound 10] | 100 to 1000 | 100 to 1000
4 | CCn1cc(C(=O)N[C@@H](C)c2cccc(F)c2)c2cc(-c3ccc4c(NC(=O)C5CC5)n[nH]c4c3)ccc21 [Compound 111] | 1 to 10 | < 1
5 | Cn1cc(C(=O)N[C@@H](CO)c2ccc(F)cc2)c2cc(-c3ccn4nc(NC(=O)C5CC5)nc4c3)ccc21 [Compound 203] | 10 to 100 | < 1
6 | COc1cccc([C@@H](C)NC(=O)c2cn(C)c3ccc(-c4ccn5nc(NC(=O)C(C)C)nc5c4)cc23)c1 [Compound 128] | 100 to 1000 | 100 to 1000
7 | C[C@H](NC(=O)c1cn(C)c2ncc(-c3ccn4nc(NC(=O)C5CC5)nc4c3)cc12)c1cccc(F)c1 [Compound 186] | 100 to 1000 | 100 to 1000
8 | CC(C)C(=O)Nc1nc2cc(-c3ccc4c(c3)c(C(=O)N[C@H](C)c3cccc(F)c3)cn4C)ccn2n1 [Compound 125] | ≥ 1000 | ≥ 1000
9 | Cn1cc(C(=O)N[C@H]2CCCc3ccc(F)cc32)c2cc(-c3ccn4nc(NC(=O)C5CC5)nc4c3)ccc21 [Compound 184] | 100 to 1000 | 100 to 1000
10 | Cc1ccc(CCNC(=O)c2n[nH]c3ccc(-c4ccc5c(N)ncnn45)cc23)cc1 [Compound 101] | 10 to 100 | 100 to 1000
11 | C[C@H](NC(=O)c1cn(C)c2ccc(-c3ccc(N4CCOCC4)nc3)cc12)c1cccc(F)c1 [Compound 73] | ≥ 1000 | ≥ 1000
12 | COc1cc(CN2CCN(C(=O)c3cn(C)c4ccc(-c5ccc6nc(NC(=O)C7CC7)sc6c5)cc34)CC2)cc(OC)c1OC [Compound 67] | ≥ 1000 | ≥ 1000
13 | Cc1cccc(CNC(=O)c2c[nH]c3ccc(-c4ccc5nc(NC(=O)C6CC6)sc5c4)cc23)c1 [Compound 15] | 10 to 100 | 10 to 100
14 | CC(C)C(=O)Nc1nc2cc(-c3ccc4c(c3)c(C(=O)N[C@@H](C)c3ccc(F)cc3)cn4C)ccn2n1 [Compound 131] | 10 to 100 | < 1
15 | O=C(NCc1ccc(F)cc1F)c1c[nH]c2ncc(-c3ccc4nc(NC(=O)C5CC5)sc4c3)cc12 [Compound 80] | 100 to 1000 | 10 to 100
16 | C[C@H](NC(=O)c1cn(C)c2ccc(-c3ccc4nc(NC(=O)C5CC5)sc4n3)cc12)c1cccc(F)c1 [Compound 89] | 10 to 100 | 1 to 10
17 | C[C@@H](NC(=O)c1c[nH]c2ccc(-c3ccc4nc(NC(=O)C5CC5)sc4c3)cc12)c1cccc(Cl)c1 [Compound 36] | 100 to 1000 | 100 to 1000
18 | C[C@H](NC(=O)c1cn(C)c2ccc(-c3ccnn3C3CCCCO3)cc12)c1cccc(F)c1 (stereo partly shown) [Compound 71] | ≥ 1000 | ≥ 1000
19 | C[C@H](NC(=O)c1cn(C)c2ccc(-c3ccc(C(=O)N4CCOCC4)cc3)cc12)c1cccc(F)c1 [Compound 70] | ≥ 1000 | 100 to 1000

Row | Compound | IC50 (RIPK1) [nM] | EC50 (HT-29 cells) [nM]
20 | Cn1cc(C(=O)N2CCC[C@H]2c2ccc(Cl)cc2)c2cc(-c3ccn4nc(NC(=O)C5CC5)nc4c3)ccc21 [Compound 194] | < 1 | < 1
21 | C[C@H](NC(=O)c1cn(C)c2ccc(-c3ccn4nc(N)nc4c3)cc12)c1cccc(F)c1 [Compound 141, (S)-5-(2-amino-[1,2,4]triazolo[1,5-a]pyridin-7-yl)-N-(1-(3-fluorophenyl)ethyl)-1-methyl-1H-indole-3-carboxamide] | 10 to 100 | 1 to 10
22 | CC[C@H](NC(=O)c1cn(CC)c2ccc(-c3ccn4nc(NC(=O)CN(C)C)nc4c3)cc12)c1ccc(F)cc1 [Compound 211] | 1 to 10 | < 1
23 | CC(C)C(=O)Nc1nc2cc(-c3ccc4c(c3)c(C(=O)NC(C)c3ccccn3)cn4C)ccn2n1 (stereo not shown) [Compound 135] | 10 to 100 | 1 to 10
24 | COc1cccc([C@@H](C)NC(=O)c2c[nH]c3ccc(-c4ccc5nc(NC(=O)C6CC6)sc5c4)cc23)c1 [Compound 39] | 100 to 1000 | 10 to 100
25 | CCn1cc(C(=O)N2CCC[C@H]2c2ccc(F)cc2)c2cc(-c3ccn4nc(NC(=O)CN(C)C)nc4c3)ccc21 [Compound 201] | 10 to 100 | 1 to 10
26 | CCn1cc(C(=O)N2CCC[C@H]2c2ccc(F)cc2)c2cc(-c3ccn4nc(NC(=O)C5CC5)nc4c3)cnc21 [Compound 197] | 1 to 10 | < 1
27 | C[C@H](NC(=O)c1c[nH]c2ncc(-c3ccc(N4CCOCC4)nc3)cc12)c1cccc(F)c1 [Compound 77] | 100 to 1000 | 100 to 1000
28 | C[C@H](NC(=O)c1c[nH]c2ccc(-c3ccc4nc(NC(=O)C5CC5)sc4n3)cc12)c1cccc(F)c1 [Compound 88] | 10 to 100 | 1 to 10
29 | O=C(NCc1cccc(Cl)c1)c1c[nH]c2ccc(-c3ccc4nc(NC(=O)C5CC5)sc4c3)cc12 [Compound 22] | 10 to 100 | 1 to 10
30 | C[C@@H](NC(=O)c1cn(C)c2ccc(-c3ccn4nc(NC(=O)C5CC5)nc4c3)cc12)c1cccc(F)c1 [Compound 156] | 10 to 100 | < 1
31 | C[C@H](NC(=O)c1c[nH]c2ccc(-c3ccn4nc(NC(=O)C5CC5)nc4c3)cc12)c1cccc(F)c1 [Compound 82] | 10 to 100 | 100 to 1000
32 | N#Cc1ccc(CNC(=O)c2c[nH]c3ccc(-c4ccc5nc(NC(=O)C6CC6)sc5c4)cc23)cc1 [Compound 7] | 10 to 100 | 10 to 100
33 | CCn1cc(C(=O)N2CCC[C@H]2c2ccc(F)cc2)c2cc(-c3ccn4nc(NC(=O)[C@H](C)O)nc4c3)ccc21 [Compound 205] | 10 to 100 | < 1
34 | C[C@H](NC(=O)c1cn(C)c2ccc(-c3ccn4nc(NC(=O)C(C)(C)CCl)nc4c3)cc12)c1cccc(F)c1 [Compound 148] | ≥ 1000 | ≥ 1000
35 | C[C@H](NC(=O)c1cn(C)c2ccc(-c3ccn4nc(NC(=O)C5CC5)cc4n3)cc12)c1cccc(F)c1 [Compound 108] | 1 to 10 | 1 to 10
36 | CCn1cc(C(=O)N[C@H](c2ccc(F)cc2)C2CC2)c2cc(-c3ccn4nc(NC5CC5)nc4c3)ccc21 [Compound 214] | ≥ 1000 | ≥ 1000
37 | Cn1cc(C(=O)N2CCCC2c2cc(F)ccc2F)c2cc(-c3ccn4nc(NC(=O)C5CC5)nc4c3)ccc21 (stereo not shown) [Compound 190] | 1 to 10 | 1 to 10
38 | COCCn1cc(C(=O)N[C@@H](C)c2cccc(F)c2)c2cc(-c3ccn4nc(NC(=O)C5CC5)nc4c3)ccc21 [Compound 154] | 10 to 100 | 1 to 10
